Experimental data published in ChEMBL document CHEMBL5625224, “Identification of [1,2,4]Triazolo[4,3-a]pyrazine PARP1 inhibitors with overcome acquired resistance activities” (Eur J Med Chem, 2023).

Assays:
MDA-MB-436 = assay: Antiproliferative activity against human MDA-MB-436 BRCA1-/- cells assessed as inhibition of cell growth incubated for 7 days by CCK-8 assay; format: functional, cell-based; details: MDA-MB-436, 168 h
[1] = Antiproliferative activity against human Simmiparib-resistant CAPAN-1 cells assessed as inhibition of cell growth incubated for 7 days by CCK-8 assay; format: functional, cell-based; details: CAPAN-1, 168 h
[2] = system: Olaparib-resistant CAPAN-1; assay: Antiproliferative activity against human Olaparib-resistant CAPAN-1 cells assessed as inhibition of cell growth incubated for 7 days by CCK-8 assay; format: functional, cell-based; details: Olaparib-resistant CAPAN-1, 168 h
[3] = system: Olaparib-resistant CAPAN-1; assay: Induction of apoptosis in human Olaparib-resistant CAPAN-1 cells assessed as early apoptotic cells at 1 uM incubated for 48 hrs by Annexin-V/PI staining based flow cytometry analysis (reference value: 8.50%); format: functional
[4] = system: Olaparib-resistant CAPAN-1; assay: Induction of apoptosis in human Olaparib-resistant CAPAN-1 cells assessed as late apoptotic cells at 1 uM incubated for 48 hrs by Annexin-V/PI staining based flow cytometry analysis (reference value: 3.67%); format: functional
CAPAN-1 [5] = assay: Induction of apoptosis in human CAPAN-1 cells assessed as late apoptotic cells at 1 uM incubated for 48 hrs by Annexin-V/PI staining based flow cytometry analysis (reference value: 4.95%); format: functional
CAPAN-1 [6] = assay: Induction of apoptosis in human CAPAN-1 cells assessed as early apoptotic cells at 1 uM incubated for 48 hrs by Annexin-V/PI staining based flow cytometry analysis (reference value: 10.1%); format: functional
[7] = Antiproliferative activity against human Talazoparib-resistant CAPAN-1 cells assessed as inhibition of cell growth incubated for 7 days by CCK-8 assay; format: functional, cell-based; details: CAPAN-1, 168 h
CAPAN-1 [8] = assay: Antiproliferative activity against human CAPAN-1 BRCA2-/- cells assessed as inhibition of cell growth incubated for 7 days by CCK-8 assay; format: functional, cell-based; details: CAPAN-1, 168 h
[9] = target: Voltage-gated inwardly rectifying potassium channel KCNH2 (Homo sapiens, UniProt Q12809); assay: Inhibition of hERG; format: toxicity
Chain of Voltage-gated inwardly rectifying potassium channel KCNH2 (Q12809 whole entry): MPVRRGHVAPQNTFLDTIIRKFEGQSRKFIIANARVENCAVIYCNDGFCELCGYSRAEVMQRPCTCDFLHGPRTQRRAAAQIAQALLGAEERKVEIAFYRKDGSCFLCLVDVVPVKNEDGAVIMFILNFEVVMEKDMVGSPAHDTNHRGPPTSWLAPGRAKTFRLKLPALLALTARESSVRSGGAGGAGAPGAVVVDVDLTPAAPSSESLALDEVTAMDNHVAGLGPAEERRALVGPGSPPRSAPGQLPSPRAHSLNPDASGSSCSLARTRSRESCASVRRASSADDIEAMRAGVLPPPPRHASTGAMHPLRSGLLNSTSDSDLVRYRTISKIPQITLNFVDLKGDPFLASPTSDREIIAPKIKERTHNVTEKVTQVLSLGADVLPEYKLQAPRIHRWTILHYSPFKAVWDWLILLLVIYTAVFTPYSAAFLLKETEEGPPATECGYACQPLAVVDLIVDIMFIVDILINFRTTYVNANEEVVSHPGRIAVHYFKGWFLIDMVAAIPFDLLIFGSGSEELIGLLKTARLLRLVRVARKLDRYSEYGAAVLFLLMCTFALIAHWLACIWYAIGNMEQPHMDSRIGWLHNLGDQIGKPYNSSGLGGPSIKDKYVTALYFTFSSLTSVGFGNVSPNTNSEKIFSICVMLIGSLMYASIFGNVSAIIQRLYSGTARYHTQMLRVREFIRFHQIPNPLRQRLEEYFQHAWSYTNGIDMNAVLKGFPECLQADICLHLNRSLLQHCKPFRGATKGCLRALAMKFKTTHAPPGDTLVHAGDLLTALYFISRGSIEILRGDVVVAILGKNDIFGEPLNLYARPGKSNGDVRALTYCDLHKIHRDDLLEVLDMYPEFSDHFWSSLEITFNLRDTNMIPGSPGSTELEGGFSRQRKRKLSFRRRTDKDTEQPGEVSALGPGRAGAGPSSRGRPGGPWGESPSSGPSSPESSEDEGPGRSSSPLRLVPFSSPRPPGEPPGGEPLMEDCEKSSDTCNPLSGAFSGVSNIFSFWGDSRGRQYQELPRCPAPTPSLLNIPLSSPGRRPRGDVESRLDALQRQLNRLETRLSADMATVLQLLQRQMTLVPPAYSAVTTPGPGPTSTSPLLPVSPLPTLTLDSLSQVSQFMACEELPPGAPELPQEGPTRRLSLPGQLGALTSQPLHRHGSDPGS

[10] = Selectivity ratio of IC50 for antiproliferative activity against human Olaparib-resistant CAPAN-1 cells to IC50 for antiproliferative activity against human CAPAN-1 BRCA2-/- cells; format: functional
[11] = Selectivity ratio of IC50 for antiproliferative activity against human Simmiparib-resistant CAPAN-1 cells to IC50 for antiproliferative activity against human CAPAN-1 BRCA2-/- cells; format: functional
[12] = target: T1, Poly [ADP-ribose] polymerase 1 (Homo sapiens, UniProt P09874); assay: Inhibition of PARP1 (unknown origin) incubated for 1 hr by ELISA analysis
T1 sequence (P09874 whole entry): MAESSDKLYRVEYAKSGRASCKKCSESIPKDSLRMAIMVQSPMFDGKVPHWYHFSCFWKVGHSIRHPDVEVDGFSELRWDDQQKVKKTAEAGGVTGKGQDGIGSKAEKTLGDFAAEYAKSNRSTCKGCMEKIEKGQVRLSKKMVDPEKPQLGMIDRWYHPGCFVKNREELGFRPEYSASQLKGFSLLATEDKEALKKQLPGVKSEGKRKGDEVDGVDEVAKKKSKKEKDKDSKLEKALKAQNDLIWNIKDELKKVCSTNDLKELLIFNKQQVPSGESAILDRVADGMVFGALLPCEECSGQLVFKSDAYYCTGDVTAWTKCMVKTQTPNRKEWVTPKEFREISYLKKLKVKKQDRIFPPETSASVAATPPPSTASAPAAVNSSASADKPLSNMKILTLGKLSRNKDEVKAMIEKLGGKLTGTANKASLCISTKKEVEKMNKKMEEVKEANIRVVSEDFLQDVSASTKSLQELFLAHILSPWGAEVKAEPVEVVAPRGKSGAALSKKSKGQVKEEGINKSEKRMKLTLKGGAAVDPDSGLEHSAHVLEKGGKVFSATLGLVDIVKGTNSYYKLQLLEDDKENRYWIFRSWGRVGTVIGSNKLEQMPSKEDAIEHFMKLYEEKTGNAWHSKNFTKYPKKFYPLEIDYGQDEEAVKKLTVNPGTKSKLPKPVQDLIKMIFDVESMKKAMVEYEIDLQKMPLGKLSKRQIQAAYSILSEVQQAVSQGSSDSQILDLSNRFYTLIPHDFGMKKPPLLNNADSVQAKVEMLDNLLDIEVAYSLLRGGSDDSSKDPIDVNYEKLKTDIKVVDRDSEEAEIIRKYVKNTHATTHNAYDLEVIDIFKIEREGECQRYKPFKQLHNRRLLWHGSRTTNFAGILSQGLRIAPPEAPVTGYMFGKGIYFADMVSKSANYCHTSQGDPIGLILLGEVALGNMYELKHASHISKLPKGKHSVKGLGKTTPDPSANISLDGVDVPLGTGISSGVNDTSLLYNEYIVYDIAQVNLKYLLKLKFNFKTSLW

[13] = Selectivity ratio of IC50 for antiproliferative activity against human Talazoparib-resistant CAPAN-1 cells to IC50 for antiproliferative activity against human CAPAN-1 BRCA2-/- cells; format: functional
[14] = Cytotoxicity against Chinese hamster V-C8 BRCA2-/- cells assessed as reduction in cell viability; format: toxicity, cell-based, Cricetulus griseus
[15] = target: T1, Poly [ADP-ribose] polymerase 1; assay: Inhibition of PARP1 (unknown origin)

Molecule `O=C(c1cc(Cc2n[nH]c(=O)c3ccccc23)ccc1F)N1CCN(C(=O)C2CC2)CC1` [OLAPARIB] has an IC50 (MDA-MB-436) of 0.0432 µM, an IC50 [1] of 27.6 µM and an IC50 [2] of 0.04 µM. The Activity [3] was 11.5%, the Activity [4] was 4.02% and the Activity (CAPAN-1 [5]) was 4.5%. It also gave an Activity (CAPAN-1 [6]) of 16.2% and an IC50 [7] of 11.5 µM.
Work on `CC1CN(C(=O)c2cc(Cc3n[nH]c(=O)c4ccccc34)ccc2F)Cc2nnc(C(F)(F)C(F)(F)F)n21` (stereo unspecified) yielded an IC50 (CAPAN-1 [8]) of 0.0025 µM, an IC50 (MDA-MB-436) of 0.0019 µM and an IC50 [9] of 40 µM. For the same molecule, the IC50 [1] was 1.53 µM, the IC50 [2] was 1.77 µM and the “Ratio IC50” value [10] was 590. The “Ratio IC50” value [11] was 509, the IC50 [12] was 0.0041 µM and the “Ratio IC50” value [13] was 91. The IC50 [7] was 0.272 µM.
In the case of `CC1(C)Cn2nncc2CN1C(=O)c1cc(Cc2n[nH]c(=O)c3ccccc23)ccc1F`, the IC50 [12] is reported as over 1 µM.
In the case of `CC1Cn2nncc2CN1C(=O)c1cc(Cc2n[nH]c(=O)c3ccccc23)ccc1F` (stereo unspecified), the IC50 [12] is reported as over 1 µM.
Molecule `CC1CN(C(=O)c2cc(Cc3n[nH]c(=O)c4ccccc34)ccc2F)Cc2nnc(C(F)F)n21` (stereo unspecified) has an IC50 (CAPAN-1 [8]) of 0.0295 µM, an IC50 (MDA-MB-436) of 0.0029 µM and an IC50 [12] of 0.0043 µM.
`Cc1cc(Cc2ccc(F)c(C(=O)N3Cc4nnc(-c5ccccn5)n4C(C)C3)c2)n[nH]c1=O` (stereo unspecified) showed an IC50 [12] of over 1 µM.
`CC1CN(C(=O)c2cc(Cc3n[nH]c(=O)c4ccccc34)ccc2F)Cc2nnc(-c3cnn(C)c3)n21` (stereo unspecified) showed an IC50 (CAPAN-1 [8]) of 0.218 µM, an IC50 (MDA-MB-436) of 0.0211 µM and an IC50 [12] of 0.0028 µM.
For `CC1CN(C(=O)c2cc(Cc3n[nH]c(=O)c4ccccc34)ccc2F)Cc2nnc(-c3ncc[nH]3)n21` (stereo unspecified), the IC50 (CAPAN-1 [8]) was 0.0137 µM, the IC50 (MDA-MB-436) was 0.0019 µM and the IC50 [12] was 0.0032 µM.
With `CC1CN(C(=O)c2cc(Cc3n[nH]c(=O)c4ccccc34)ccc2F)Cc2nnc(CCl)n21` (stereo unspecified) the IC50 (MDA-MB-436) was 0.0027 µM and the IC50 [12] was under 0.0003 µM.
With `CC1CN(C(=O)c2cc(Cc3n[nH]c(=O)c4ccccc34)ccc2F)Cc2nnc(CO)n21` (stereo unspecified) the IC50 [12] was 0.0092 µM.
`CC1CN(C(=O)c2cc(Cc3n[nH]c(=O)c4ccccc34)ccc2F)Cc2nnc(-c3cccs3)n21` (stereo unspecified) showed an IC50 (MDA-MB-436) of 0.0011 µM, an IC50 [9] of 4.1 µM and an IC50 [1] of 3.29 µM. The IC50 [2] was 4.66 µM, the “Ratio IC50” value [10] was 717 and the “Ratio IC50” value [11] was 507. For the same molecule, the IC50 [12] was 0.0007 µM, the “Ratio IC50” value [13] was 112 and the IC50 [7] was 0.73 µM.
Work on `CC1CN(C(=O)c2cc(Cc3n[nH]c(=O)c4ccccc34)ccc2F)Cc2nnc(CF)n21` (stereo unspecified) yielded an IC50 [12] of 0.0119 µM.
`CC1CN(C(=O)c2cc(Cc3n[nH]c(=O)c4ccccc34)ccc2F)Cc2nnc(-c3ccsc3)n21` (stereo unspecified) gave an IC50 (CAPAN-1 [8]) of 0.0073 µM and an IC50 [12] of 0.002 µM.
`CC1CN(C(=O)c2cc(Cc3n[nH]c(=O)c4ccccc34)ccc2F)Cc2cnnn21` (stereo unspecified) gave an IC50 [12] of over 1 µM.
In the case of `CC1CN(C(=O)c2cc(Cc3n[nH]c(=O)c4ccccc34)ccc2F)Cc2nnc(-c3cnccn3)n21` (stereo unspecified), the IC50 (CAPAN-1 [8]) is reported as 0.0073 µM, the IC50 (MDA-MB-436) is reported as under 0.0003 µM and the IC50 [12] is reported as 0.004 µM.
`Cc1c(Cc2ccc(F)c(C(=O)N3Cc4nnc(-c5ccccn5)n4C(C)C3)c2)n[nH]c(=O)c1C` (stereo unspecified) showed an IC50 [12] of 0.0613 µM.
With `CC1CN(C(=O)c2cc(Cc3ccc(=O)[nH]n3)ccc2F)Cc2nnc(-c3ccccn3)n21` (stereo unspecified) the IC50 [12] was 0.947 µM.
Molecule `CC1CN(C(=O)c2cc(Cc3n[nH]c(=O)c4ccccc34)ccc2F)Cc2nnc(-c3ccccn3)n21` (stereo unspecified) has an IC50 (CAPAN-1 [8]) of 0.001 µM, an IC50 (MDA-MB-436) of under 0.0003 µM and an IC50 [9] of 17.4 µM. The IC50 [1] was 0.437 µM, the IC50 [2] was 0.292 µM and the “Ratio IC50” value [10] was 165. For the same molecule, the “Ratio IC50” value [11] was 247, the IC50 [12] was 0.002 µM and the “Ratio IC50” value [13] was 55. The IC50 [7] was 0.097 µM.
Work on `CC1CN(C(=O)c2cc(Cc3n[nH]c(=O)c4ccccc34)ccc2F)Cc2nnc(C(F)(F)F)n21` (stereo unspecified) yielded an IC50 (MDA-MB-436) of 0.0013 µM, an IC50 [1] of 0.02 µM and an IC50 [2] of 0.02 µM. The CC50 [14] was 0.042 µM and the IC50 [7] was 0.02 µM.
`COc1ccc2c(c1)C(C)N(C(=O)c1cc(Cc3n[nH]c(=O)c4ccccc34)ccc1F)CC2` (stereo unspecified) showed an IC50 [12] of 0.108 µM.
`CC1CN(C(=O)c2cc(Cc3n[nH]c(=O)c4ccccc34)ccc2F)Cc2nnc(-c3nccn3C)n21` (stereo unspecified) gave an IC50 [12] of 0.0077 µM.
`O=C1CC2c3c(cccc31)CCN2C(=O)c1cc(Cc2n[nH]c(=O)c3ccccc23)ccc1F` (stereo unspecified) showed an IC50 [15] of 0.00346 µM and a CC50 [14] of 0.00453 µM.
`CC1CN(C(=O)c2cc(Cc3n[nH]c(=O)c4ccccc34)ccc2F)Cc2nnc(CN(C)C)n21` (stereo unspecified) gave an IC50 (CAPAN-1 [8]) of 1.43 µM and an IC50 [12] of 0.0176 µM.
With `CC1CN(C(=O)c2cc(Cc3n[nH]c(=O)c4ccccc34)ccc2F)Cc2nnc(-c3cncs3)n21` (stereo unspecified) the IC50 (CAPAN-1 [8]) was 0.0216 µM and the IC50 [12] was 0.0058 µM.
With `CC1c2ccccc2CCN1C(=O)c1cc(Cc2n[nH]c(=O)c3ccccc23)ccc1F` (stereo unspecified) the IC50 [12] was 0.0428 µM.
Work on `CC1CN(C(=O)c2cc(COc3ccccc3C(N)=O)ccc2F)Cc2nnc(-c3ccccn3)n21` (stereo unspecified) yielded an IC50 [12] of 0.23 µM.
In the case of `CC1CN(C(=O)c2cc(Cc3n[nH]c(=O)c4ccccc34)ccc2F)Cc2nnc(C3COC(C)(C)O3)n21` (stereo unspecified), the IC50 [12] is reported as 0.025 µM.
Work on `CC1CN(C(=O)c2cc(Cc3n[nH]c(=O)c4ccccc34)ccc2F)Cc2nnc(C(F)(F)Cl)n21` (stereo unspecified) yielded an IC50 (CAPAN-1 [8]) of 0.0034 µM, an IC50 (MDA-MB-436) of 0.0003 µM and an IC50 [12] of 0.0034 µM.
`CC1CN(C(=O)c2cc(Cn3c(=O)[nH]c(=O)c4ccccc43)ccc2F)Cc2nnc(-c3ccccn3)n21` (stereo unspecified) gave an IC50 [12] of 0.0046 µM.
`CC1CN(C(=O)c2cc(Cc3n[nH]c(=O)c4ccccc34)ccc2F)Cc2nnc(C3CC3)n21` (stereo unspecified) showed an IC50 (CAPAN-1 [8]) of 0.0607 µM, an IC50 (MDA-MB-436) of 0.0075 µM and an IC50 [12] of 0.0032 µM.
Molecule `CC(C)c1nnc2n1C(C)CN(C(=O)c1cc(Cc3n[nH]c(=O)c4ccccc34)ccc1F)C2` (stereo unspecified) has an IC50 [12] of 0.0041 µM.
Work on `CC1CN(C(=O)c2cc(Cc3n[nH]c(=O)c4ccccc34)ccc2F)Cc2nnc(CO[Si](C)(C)C(C)(C)C)n21` (stereo unspecified) yielded an IC50 (CAPAN-1 [8]) of 0.0547 µM.
For `O=C1NCC2c3c(cccc31)CCN2C(=O)c1cc(Cc2n[nH]c(=O)c3ccccc23)ccc1F` (stereo unspecified), the CC50 [14] was 0.096 µM.
With `CC1(C)CN(C(=O)c2cc(Cc3n[nH]c(=O)c4ccccc34)ccc2F)Cc2cnnn21` the IC50 [12] was over 1 µM.
With `O=C(c1cc(Cc2n[nH]c(=O)c3ccccc23)ccc1F)N1CCc2ccccc2C1C1CC1` (stereo unspecified) the IC50 [12] was 0.182 µM.
For `CC1c2cc(F)ccc2CCN1C(=O)c1cc(Cc2n[nH]c(=O)c3ccccc23)ccc1F` (stereo unspecified), the IC50 [12] was 0.0707 µM.
In the case of `Cn1ncnc1[C@H]1c2n[nH]c(=O)c3cc(F)cc(c23)N[C@@H]1c1ccc(F)cc1` [TALAZOPARIB], the IC50 [1] is reported as 0.478 µM, the IC50 [2] is reported as 0.367 µM and the “Ratio IC50” value [10] is reported as 1344. The “Ratio IC50” value [11] was 1749, the “Ratio IC50” value [13] was 666 and the IC50 [7] was 0.182 µM.
With `CC1CN(C(=O)c2cc(Cc3n[nH]c(=O)c4ccccc34)ccc2F)Cc2nnc(-c3c[nH]cn3)n21` (stereo unspecified) the IC50 [12] was 0.0131 µM.
For `CC1CN(C(=O)c2cc(Cc3n[nH]c(=O)c4ccccc34)ccc2F)Cc2nnc(-c3ccco3)n21` (stereo unspecified), the IC50 (MDA-MB-436) was under 0.0003 µM and the IC50 [12] was 0.0017 µM.
`CC1CN(C(=O)c2cc(Cc3n[nH]c(=O)c4ccccc34)ccc2F)Cc2nncn21` (stereo unspecified) gave an IC50 [12] of 0.0094 µM.
`CC1CN(C(=O)c2cc(Cc3n[nH]c(=O)c4ccccc34)ccc2F)Cc2nnc(C(O)CO)n21` (stereo unspecified) gave an IC50 [12] of 0.021 µM.
